Experimental data as given in PubChem BioAssay AID1259407 (Chemical Carcinogenesis Research Information System (CCRIS), 2018).
Active and inactive are the calls of the source. How the calls were made is not given here.

System: CCRIS mutagenicity, Ames/micronucleus/aberration tests
Assay: CCRIS mutagenicity studies
[1] = Test System: AMES SALMONELLA TYPHIMURIUM, Strain/Indicator: TA98, Metabolic Activation: NONE, Method: STANDARD PLATE
[2] = Test System: AMES SALMONELLA TYPHIMURIUM, Strain/Indicator: TA98, Metabolic Activation: NONE, Method: PREINCUBATION
[3] = Test System: AMES SALMONELLA TYPHIMURIUM, Strain/Indicator: TA98, Metabolic Activation: RAT, LIVER, S-9, AROCLOR 1254, Method: PREINCUBATION
[4] = Test System: AMES SALMONELLA TYPHIMURIUM, Strain/Indicator: TA100, Metabolic Activation: NONE, Method: PREINCUBATION
[5] = Test System: AMES SALMONELLA TYPHIMURIUM, Strain/Indicator: TA100, Metabolic Activation: RAT, LIVER, S-9, AROCLOR 1254, Method: PREINCUBATION
[6] = Test System: AMES SALMONELLA TYPHIMURIUM, Strain/Indicator: TA100, Metabolic Activation: NONE, Method: STANDARD PLATE
[7] = Test System: AMES SALMONELLA TYPHIMURIUM, Strain/Indicator: TA100, Metabolic Activation: RAT, LIVER, S-9, AROCLOR 1254, Method: STANDARD PLATE

Measured: mutagenic call

O=[N+]([O-])c1cc2c3c(ccc4cc([N+](=O)[O-])cc(c43)CC2)c1
active: Test System: AMES SALMONELLA TYPHIMURIUM, Strain/Indicator: TA98(1,8-DNP6), Metabolic Activation: NONE, Method: STANDARD PLATE active; positive | Test System: AMES SALMONELLA TYPHIMURIUM, Strain/Indicator: TA98(NR), Metabolic Activation: NONE, Method: STANDARD PLATE active; positive | [1] active; positive

Clc1ccc(Cl)c(Cl)c1Cl
inactive: End Point: IN VITRO CHROMOSOMAL ABERRATIONS, Test System: CHO-LB CELLS, Metabolic Activation: NONE inactive; negative | End Point: IN VITRO CHROMOSOMAL ABERRATIONS, Test System: CHO-LB CELLS, Metabolic Activation: RAT, LIVER, S-9, AROCLOR 1254 inactive; negative | Test System: AMES SALMONELLA TYPHIMURIUM, Strain/Indicator: TA98, Metabolic Activation: HAMSTER, LIVER, S-9, AROCLOR 1254, Method: PREINCUBATION inactive; negative | [2] inactive; negative | [3] inactive; negative | Test System: AMES SALMONELLA TYPHIMURIUM, Strain/Indicator: TA100, Metabolic Activation: HAMSTER, LIVER, S-9, AROCLOR 1254, Method: PREINCUBATION inactive; negative | [4] inactive; negative | [5] inactive; negative | Test System: AMES SALMONELLA TYPHIMURIUM, Strain/Indicator: TA1535, Metabolic Activation: HAMSTER, LIVER, S-9, AROCLOR 1254, Method: PREINCUBATION inactive; negative | Test System: AMES SALMONELLA TYPHIMURIUM, Strain/Indicator: TA1535, Metabolic Activation: NONE, Method: PREINCUBATION inactive; negative | Test System: AMES SALMONELLA TYPHIMURIUM, Strain/Indicator: TA1535, Metabolic Activation: RAT, LIVER, S-9, AROCLOR 1254, Method: PREINCUBATION inactive; negative | Test System: AMES SALMONELLA TYPHIMURIUM, Strain/Indicator: TA1537, Metabolic Activation: HAMSTER, LIVER, S-9, AROCLOR 1254, Method: PREINCUBATION inactive; negative | Test System: AMES SALMONELLA TYPHIMURIUM, Strain/Indicator: TA1537, Metabolic Activation: NONE, Method: PREINCUBATION inactive; negative | Test System: AMES SALMONELLA TYPHIMURIUM, Strain/Indicator: TA1537, Metabolic Activation: RAT, LIVER, S-9, AROCLOR 1254, Method: PREINCUBATION inactive; negative

COc1ccc(CN2C3c4ccccc4-c4ccccc4C32)cc1 (stereo not given)
active: [6] active; positive

O=S(=O)(O)OCc1ccc2ccc3cccc4ccc1c2c34
active: [2] active; positive

Cc1ccsc1
inactive: [2] inactive; negative | [3] inactive; negative | [4] inactive; negative | [5] inactive; negative | Test System: AMES SALMONELLA TYPHIMURIUM, Strain/Indicator: TA102, Metabolic Activation: NONE, Method: PREINCUBATION inactive; negative | Test System: AMES SALMONELLA TYPHIMURIUM, Strain/Indicator: TA102, Metabolic Activation: RAT, LIVER, S-9, AROCLOR 1254, Method: PREINCUBATION inactive; negative

O=c1oc2ccc([N+](=O)[O-])c3ccc4cccc1c4c23
active: Test System: AMES SALMONELLA TYPHIMURIUM, Strain/Indicator: TA98(1,8-DNP6), Metabolic Activation: NONE, Method: PREINCUBATION active; positive | Test System: AMES SALMONELLA TYPHIMURIUM, Strain/Indicator: TA98(NR), Metabolic Activation: NONE, Method: PREINCUBATION active; positive | Test System: AMES SALMONELLA TYPHIMURIUM, Strain/Indicator: TA98(NR), Metabolic Activation: RAT, LIVER, S-9, AROCLOR 1254, Method: PREINCUBATION active; positive | [2] active; positive | [3] active; positive | [4] active; positive | [5] active; positive
inactive: Test System: AMES SALMONELLA TYPHIMURIUM, Strain/Indicator: TA98(1,8-DNP6), Metabolic Activation: RAT, LIVER, S-9, AROCLOR 1254, Method: PREINCUBATION inactive; negative

CC(Cl)C(Br)CBr (stereo not given)
active: Test System: AMES SALMONELLA TYPHIMURIUM, Strain/Indicator: TA100, Metabolic Activation: RAT, LIVER, MICROSOMES, PHENOBARBITAL, Method: PREINCUBATION active; positive | Test System: AMES SALMONELLA TYPHIMURIUM, Strain/Indicator: TA100, Metabolic Activation: RAT, LIVER, MICROSOMES, Method: PREINCUBATION active; positive

Nc1nc2c([nH]c(=O)n2[C@H]2C[C@H](O)[C@@H](CO)O2)c(=O)[nH]1
inactive: [4] inactive; negative

c1cnc2c(c1)ccc1c3cccnc3ccc12
active: Test System: AMES SALMONELLA TYPHIMURIUM, Strain/Indicator: TA100, Metabolic Activation: POOLED HUMAN LIVER MICROSOMES, Method: PREINCUBATION active; positive | Test System: AMES SALMONELLA TYPHIMURIUM, Strain/Indicator: TA100, Metabolic Activation: RAT, LIVER, S-9, PHENOBARBITAL AND 5,6-BENZOFLAVONE, Method: PREINCUBATION active; positive | Test System: LACZ TRANSGENIC MOUSE (MUTATM MOUSE), Strain/Indicator: LACZ MUTANT FREQUENCY, Method: LIVER, SPLEEN, LUNG, KIDNEY, BONE MARROW, COLON HARVESTED 7 D AFTER LAST DOSE, DNA ISOLATED active; positive; g:c to t:a transversions in all organs

c1ccc2c(c1)C1OOC2c2ccccc21
inactive: [1] inactive; negative | [6] inactive; negative | [7] inactive; negative

Cc1ccc(NCCO)cc1O
inactive: [1] inactive; negative | Test System: AMES SALMONELLA TYPHIMURIUM, Strain/Indicator: TA98, Metabolic Activation: RAT, LIVER, S-9, AROCLOR 1254, Method: STANDARD PLATE inactive; negative | [6] inactive; negative | [7] inactive; negative | Test System: AMES SALMONELLA TYPHIMURIUM, Strain/Indicator: TA1535, Metabolic Activation: NONE, Method: STANDARD PLATE inactive; negative | Test System: AMES SALMONELLA TYPHIMURIUM, Strain/Indicator: TA1535, Metabolic Activation: RAT, LIVER, S-9, AROCLOR 1254, Method: STANDARD PLATE inactive; negative | Test System: AMES SALMONELLA TYPHIMURIUM, Strain/Indicator: TA1537, Metabolic Activation: NONE, Method: STANDARD PLATE inactive; negative | Test System: AMES SALMONELLA TYPHIMURIUM, Strain/Indicator: TA1537, Metabolic Activation: RAT, LIVER, S-9, AROCLOR 1254, Method: STANDARD PLATE inactive; negative | Test System: AMES SALMONELLA TYPHIMURIUM, Strain/Indicator: TA1538, Metabolic Activation: NONE, Method: STANDARD PLATE inactive; negative | Test System: AMES SALMONELLA TYPHIMURIUM, Strain/Indicator: TA1538, Metabolic Activation: RAT, LIVER, S-9, AROCLOR 1254, Method: STANDARD PLATE inactive; negative | Test System: MOUSE LYMPHOMA, Strain/Indicator: L5178Y (TK+/TK-), Metabolic Activation: NONE, Method: SUSPENSION/PLATE inactive; negative | Test System: UDS HUMAN CELLS, Strain/Indicator: THY INCORP, Metabolic Activation: NONE, Method: LIQUID SCINTILLATION COUNTING inactive; negative | Test System: UDS HUMAN CELLS, Strain/Indicator: THY INCORP, Metabolic Activation: RAT, LIVER, S-9, PHENOBARBITAL AND BETA-NAPHTHOFLAVONE, Method: LIQUID SCINTILLATION COUNTING inactive; negative
